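Assay format: 96-well plates, 48-hour exposure. At the GI50, growth is halved. TGI: total growth inhibition.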
Tests used:
Test in all cases: growth of human tumour cells (NCI), 48 h
[1] = test system: HCC-2998 colon
[2] = test system: HCT-15 colon
[3] = test system: HL-60(TB) leukemia
[4] = test system: HOP-92 NSCLC
[5] = test system: MOLT-4 leukemia
[6] = test system: NCI-H23 lung
[7] = test system: OVCAR-3 ovarian
[8] = test system: OVCAR-5 ovarian
[9] = test system: SK-MEL-28 melanoma
[10] = test system: T-47D breast

| Structure (SMILES) | GI50 [1] [µM] | TGI [1] [µM] | GI50 [2] [µM] | TGI [2] [µM] | GI50 [3] [µM] | TGI [3] [µM] | GI50 [4] [µM] | TGI [4] [µM] | GI50 [5] [µM] | TGI [5] [µM] | GI50 [6] [µM] | TGI [6] [µM] | GI50 [7] [µM] | TGI [7] [µM] | GI50 [8] [µM] | TGI [8] [µM] | GI50 [9] [µM] | TGI [9] [µM] | GI50 [10] [µM] | TGI [10] [µM] |
| --- | --- | --- | --- | --- | --- | --- | --- | --- | --- | --- | --- | --- | --- | --- | --- | --- | --- | --- | --- | --- |
| Fc1cccc(COc2ccc(Nc3ncnc4sc(-c5cccs5)cc34)cc2Cl)c1 | 5.25 | > 18.4 | 9.11 | > 25 | > 25 | > 25 | 3.3 | 10.2 | > 25 | > 25 | > 13.6 | > 25 | 0.77 | 6.24 | 6.89 | > 25 | 6.58 | > 22.8 | 2.71 | 9.04 |
| Cc1cc2nc3c4cc(O)ccc4n(CCN(C)C)c3nc2cc1C | 1.71 | 4.71 | 0.611 | 4.1 | 0.364 | 1.76 | 0.287 | 2.62 | 0.377 | 11.2 | 0.833 | 3.35 | 1.77 | 8.19 | 0.953 | 4.46 | 1.56 | 3.16 | 1.28 | > 100 |
| COc1ccc(C2CC(c3cccc(Nc4ccnc5cc(Cl)ccc45)c3)=NN2C=O)cc1 (stereo not given) | 1.68 | > 100 | 0.541 | > 100 | 0.257 | 0.774 | > 100 | > 100 | 0.487 | > 100 | 0.967 | > 81.6 | 0.383 | 3.59 | 7.61 | > 100 | 1.13 | 25.6 | 0.604 | > 42.8 |
| CC1=CC(=O)C2=C(C)CCC3C(C)C(=O)OC3C12 (stereo not given) | – | > 100 | – | > 100 | – | > 100 | – | > 100 | – | > 100 | – | > 100 | – | > 100 | – | > 100 | – | > 100 | – | > 100 |
| CC(=O)c1ccc2c(c1)c1cc(C(C)=O)ccc1n2CCNC(C)C | 0.635 | 4.39 | 0.352 | 3.82 | 0.362 | 2.67 | 0.764 | 4.27 | 0.337 | 1.79 | 0.389 | 2.41 | 0.506 | 3.91 | 0.462 | 5.56 | 0.326 | 1.47 | 0.523 | 13 |
| CCN(CCCN(C)C)Cc1cc(I)cc(C)c1O | 16.1 | 32.2 | 21.5 | 49.4 | 20 | 41.5 | 10.8 | 52.3 | 17.9 | 36.5 | 97.2 | > 100 | 26.7 | > 100 | 26.8 | 96.1 | 18 | 36.3 | 21.3 | 48.5 |
| C=C1CC[C@@H]2[C@](C)(COC(C)=O)[C@H](OC(C)=O)CC[C@@]2(C)[C@@H]1CC(Nc1ccc(S(=O)(=O)NC(C)=O)cc1)C1=CCOC1=O (stereo not given in full) | 7.51 | 17.3 | 1.53 | 4.36 | 2.45 | 12 | 6.5 | 15.8 | 2.2 | 6.66 | 5.52 | 17.4 | 1.49 | 3.02 | 4.82 | 15.4 | 3.69 | 13.2 | 2.46 | 12 |
| O=S(=O)(NCCCNc1nccc(-c2c(-c3ccc(O)cc3)nc3sccn23)n1)c1ccc(F)cc1 | 3.37 | 6.93 | 2.61 | 10 | 2.61 | 5.61 | 2.65 | 8.56 | 2.47 | 8.81 | 2.24 | 7.7 | 2.66 | 12.1 | 5.58 | > 100 | 0.0528 | 6.23 | 1.39 | 3.55 |

Source: PubChem BioAssay (NCI)
